Assays:
JAK2 = JAK2 phosphorylation western blot assay; assay type: cell-based, human; conditions: 10 microM, HEL or K562 cells (table does not say which)
Method: (§1) The Human Erythroleukemia cell line HEL and the human Chronic Myeloid Leukemia cell line K562 were cultured in RPM I 1640 medium containing 10% fetal bovine serum (FBS) and 50 U/ml penicillin/50 U/ml streptomycin at 37° C. in a 5% CO2 humidified atmosphere to a density of 300.000 viable cells/mL in presence of WP1066 (positive control of phosphorylation inhibition) (Verstovsek et al., 2008) or CM-363 at concentrations of 1, 5 and 10 μM. Cell culture reagents were all obtained from BioWhittaker® (Lonza, Verniers, Belgium). Cell growth and viability was determined by propidium iodide (fluorescent dye) exclusion method using the Accuchip 4× Counting Kit and the ADAM automatic cell counter (Digital-Bio, NanoEntek, Ic., Washington St, Mass., USA).As a control of unspecific phosphorylation, some cells in each experiment were exposed to vehicle (negative control of phosphorylation inhibition) (0.1% DMSO).
(§2) For total protein extraction, cells were scraped with RIPA 1× lysis buffer (25 mM Tris-HCl pH 7.6, 150 mM NaCl, 1% NP-40, 1% sodium deoxycholate, 0.1% SDS, no. 89900, Thermo Scientific, Rockford, Ill., USA) supplemented with 1× protease and 1× phosphatase inhibitor cocktails (100× Halt™ Protease Inhibitor Cocktail, no. 87786 and 100× Halt Phosphatase Inhibitor Cocktail, no. 78420, both from Thermo Scientific, Rockford, Ill., USA). An aliquot of each extract was preserved for protein quantification by bicinchoninic acid assay (Pierce® BCA Protein Assay Kit, no. 23225, Thermo Scientific, Rockford, Ill., USA).
(§3) Proteins were solubilized in sample buffer containing 0.0625 M Tris-HCl, pH 6.8, 2.3% (wt/vol) SDS, 10% (vol/vol) glycerol, 5% (vol/vol) f3-mercaptoethanol, and 0.001% (wt/vol) bromophenol blue and boiled at 95° C. for 5 min. Equal amounts (50 μg) of each sample were electrophoresed on 8-10% sodium dodecyl sulfate-polyacrylamide gel electrophoresis (SDS-PAGE) and transferred to nitrocellulose membranes (iBlot® Gel Transfer Stacks, Nitrocellulose, no. IB4010-02, Invitrogen, Barcelona, Spain) as described previously (Fernandez, L, et al., Endocrinology, 13, 1815-1824, 1998; B. Guerra et al., J. Neurochem, 91, 99-109, 2004; B. Guerra et al., J. Appl. Physiol., 102, 1786-1792, 2007; B. Guerra et al., J. Appl. Physiol., 111, 715-725, 2011). The nitrocellulose membranes were then removed from the iBlot® Dry GelTransfer Device (no. IB1001EU, Invitrogen, Barcelona, Spain) and placed in a Ponceau S staining solution (0.5% Ponceau S and 1% glacial acetic acid in water) to verify equal loading of protein in the control and treated samples. After the membranes were stained for 5 min, they were rinsed for 2 min and examined. Equal loading of protein was verified, and the membranes were rinsed for an additional 10 min and immunoscreened. Membranes were blocked with 5% blotting grade blocker nonfat dry milk in Tris Buffered Saline with 0.05% Tween 20 (TBST; blotto-blocking buffer) for at least […]) at room temperature. They were washed thrice in TBS with 0.1% Tween 20 (TBST-0.1). Next, the membranes were incubated over night at 4° C. with the appropriate anti-phospho-antibodies (described below) all diluted (1:1000) in 1% bovine serum albumin (BSA)-1% blotto in TBST (BSA-blotto blocking buffer). […] Membranes were stripped of bound antibodies by incubation in stripping buffer (Restore™ Western Blot Stripping Buffer, no. 21059, Thermo Scientific, Rockford, Ill., USA) at room temperature for 30 min with agitation. Membranes were washed for 3×10 min in TBST-0.1, blocked with blotto-blocking buffer for at least 1 h and re-probed with the corresponding anti-total kinase antibodies (described below) all diluted (1:1000) in blotto-blocking buffer. […]

STAT5 = STAT5 phosphorylation western blot assay; assay type: cell-based, human; conditions: 10 microM, HEL or K562 cells (table does not say which)
Method: as §1, §2, §3

K562 tumors = experiment: In vivo efficacy, K562 tumor xenografts in NOD-SCID mice; conditions: 10 mg/kg i.p. daily except Saturdays and Sundays, 25 day study; P=0.004 day 4, P=0.007 day 25
Text: Mice were sacrificed when their tumor diameters reached 2 cm, or when they became moribund.

N#Cc1ccc(C2C3=C(CCCC3=O)OC3=C2C(=O)c2ccccc2C3=O)cc1 (stereo not drawn) [Compound 4, 4-(1,6,11-trioxo-2,3,4,6,11,12-hexahydro-1H-benzo[b]xanthen-12-yl)benzonitrile]
Activity (inhibition of JAK2 phosphorylation) (JAK2): ++ (++represents an inhibition at 10 microM > 50%) | Activity (inhibition of STAT5 phosphorylation) (STAT5): +++ (+++represents an inhibition at 10 microM > 75%) | tumor growth (tumor volume) compared to control group (K562 tumors): pronounced, and statistically significant reduction
